From PMC11589570, “Critical assessment of LC3/GABARAP ligands used for degrader development and ligandability of LC3/GABARAP binding pockets” (Nature Communications, 2024)
Several values for one entry are separate records, joined by “and”; a condition that tells them apart may be missing. Equal entries are not always repeated. Where two headings read alike, the source gives them in different places.

Tests used:
LC3A = LC3A (Homo sapiens, UniProt Q9H492); assay: FP assay with Cy5-labelled p62 LIR tracer (protein titration and tracer displacement); format: binding; conditions: LC3A
LC3B = LC3B (Homo sapiens, UniProt Q9GZQ8); assay: as above; format: binding; conditions: for normalized FP signal, p62 LIR tracer displacement: LC3B; for compound titration LC3B (displacement curve, FP signal): two replicate columns per compound
[1] = Cell viability measurements; format: cell-based; parameters: Cell viability: scale not given here; conditions: two replicate columns; for Cell viability: listed as 8F20
Excerpt: 1 Source data for Supplementary Fig. 8a-f are provided as a Source Data file.

GABARAPL2 = GABARAPL2 (Homo sapiens, UniProt P60520); conditions: GABARAPL2:ligand molar ratio 1:2
[2] = log10 concentration [M] -6.69897
[3] = log10 concentration [M] -7.79588
[4] = log10 concentration [M] -8.08092
[5] = log10 concentration [M] -3.82391
[6] = log10 concentration [M] -4.1549
[7] = log10 concentration [M] -4.60206
[8] = log10 concentration [M] -5.30103
[9] = log10 concentration [M] -5.69897
[10] = log10 concentration [M] -6.22185
[11] = log10 concentration [M] -7.30103

Chain of GABARAPL2 (P60520 whole entry): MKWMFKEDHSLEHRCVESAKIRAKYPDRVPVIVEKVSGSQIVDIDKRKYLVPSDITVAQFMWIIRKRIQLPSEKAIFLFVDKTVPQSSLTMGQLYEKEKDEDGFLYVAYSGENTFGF

Q: Which “normalized FP signal, p62 LIR tracer displacement” value (from here on “normalized FP signal”) (LC3A; log10 concentration [M] -3.82391, listed as 8F20) does the source give for Cc1ccc(C(=O)N(CCCN)[C@@H](c2nc3cc(Cl)ccc3c(=O)n2Cc2ccccc2)C(C)C)cc1 [compound 3, (R)-N-(3-aminopropyl)-N-(1-(3-benzyl-7-chloro-4-oxo-3,4-dihydroquinazolin-2-yl)−2-methylpropyl)−4-methylbenzamide] here?
A: Its value is 97.3684 and 104.737.

Q: And the “normalized FP signal” value (LC3A; log10 concentration [M] -4.1549, listed as 8F20)?
A: The value was 102.105 and 103.947.

Q: What about the “normalized FP signal” value (LC3A; log10 concentration [M] -4.60206, listed as 8F20) of the same compound?
A: Its value is 101.053 and 106.053.

Q: What about the “normalized FP signal” value (LC3A; log10 concentration [M] -5, listed as 8F20) of the same compound?
A: The value was 99.7368 and 100.789.

Q: What about the “normalized FP signal” value (LC3A; log10 concentration [M] -5.30103, listed as 8F20) of the same compound?
A: Its value is 102.105 and 98.4211.

Q: What about the “normalized FP signal” value (LC3A; log10 concentration [M] -5.69897, listed as 8F20) of the same compound?
A: The value was 97.6316 and 96.0526.

Q: What about the “normalized FP signal” value (LC3A; log10 concentration [M] -6.22185, listed as 8F20) of the same compound?
A: The value was 102.632 and 94.2105.

Q: What about the “normalized FP signal” value (LC3A; [2]) of the same compound?
A: Its value is 101.053.

Q: What about the “normalized FP signal” value (LC3A; log10 concentration [M] -6.69897, listed as 8F20) of the same compound?
A: Its value is 99.7368.

Q: What about the “normalized FP signal” value (LC3A; log10 concentration [M] -7.30103, listed as 8F20) of the same compound?
A: The value was 103.947 and 101.316.

Q: What about the “normalized FP signal” value (LC3A; [3]) of the same compound?
A: Its value is 98.4211.

Q: What about the “normalized FP signal” value (LC3A; log10 concentration [M] -7.79588, listed as 8F20) of the same compound?
A: The value was 93.9474.

Q: What about the “normalized FP signal” value (LC3A; [4]) of the same compound?
A: The value was 102.105.

Q: And the “normalized FP signal” value (LC3A; log10 concentration [M] -8.08092, listed as 8F20)?
A: The value was 93.9474.

Q: What about the “normalized FP signal” value (LC3B; [5]) of the same compound?
A: The value was 79.4737 and 100.789.

Q: And the “normalized FP signal” value (LC3B; [6])?
A: The value was 91.0526 and 93.9474.

Q: What about the “normalized FP signal” value (LC3B; [7]) of the same compound?
A: The value was 98.6842 and 96.3158.

Q: What about the “normalized FP signal” value (LC3B; log10 concentration [M] -5) of the same compound?
A: Its value is 92.3684 and 100.263.

Q: And the “normalized FP signal” value (LC3B; [8])?
A: The value was 95.7895 and 96.5789.

Q: What about the “normalized FP signal” value (LC3B; [9]) of the same compound?
A: The value was 95.5263 and 96.0526.

Q: And the “normalized FP signal” value (LC3B; [10])?
A: Its value is 92.1053 and 92.3684.

Q: What about the “normalized FP signal” value (LC3B; [2]) of the same compound?
A: The value was 97.6316 and 96.5789.

Q: And the “normalized FP signal” value (LC3B; [11])?
A: The value was 93.1579 and 99.7368.

Q: And the “normalized FP signal” value (LC3B; [3])?
A: The value was 100.263 and 96.8421.

Q: And the “normalized FP signal” value (LC3B; [4])?
A: The value was 95.2632 and 96.3158.

Q: And the “compound titration LC3B (displacement curve, FP signal)” value (shortened to “compound titration LC3B”) (LC3B; [5])?
A: The value was 79.4737 and 100.789.

Q: What about the “compound titration LC3B” value (LC3B; [6]) of the same compound?
A: The value was 91.0526 and 93.9474.

Q: And the “compound titration LC3B” value (LC3B; [7])?
A: Its value is 98.6842 and 96.3158.

Q: What about the “compound titration LC3B” value (LC3B; log10 concentration [M] -5) of the same compound?
A: The value was 92.3684 and 100.263.

Q: And the “compound titration LC3B” value (LC3B; [8])?
A: The value was 95.7895 and 96.5789.

Q: And the “compound titration LC3B” value (LC3B; [9])?
A: Its value is 95.5263 and 96.0526.

Q: And the “compound titration LC3B” value (LC3B; [10])?
A: Its value is 92.1053 and 92.3684.

Q: What about the “compound titration LC3B” value (LC3B; [2]) of the same compound?
A: The value was 97.6316 and 96.5789.

Q: What about the “compound titration LC3B” value (LC3B; [11]) of the same compound?
A: Its value is 93.1579 and 99.7368.

Q: What about the “compound titration LC3B” value (LC3B; [3]) of the same compound?
A: Its value is 100.263 and 96.8421.

Q: And the “compound titration LC3B” value (LC3B; [4])?
A: The value was 95.2632 and 96.3158.

Q: What about the viability at 20 µM ([1]; log concentration [M] -4.69897) of the same compound?
A: Its viability at 20 µM is 0.689%.

Q: And the Cell viability ([1]; log concentration [M] -4.69897)?
A: The Cell viability was 1.283.

Q: What about the viability at 7.5 µM ([1]; log concentration [M] -5.12494) of the same compound?
A: The viability at 7.5 µM was 91.3%.

Q: What about the Cell viability ([1]; log concentration [M] -5.12494) of the same compound?
A: The Cell viability was 92.2351.

Q: What about the viability at 2.5 µM ([1]; log concentration [M] -5.60206) of the same compound?
A: Its viability at 2.5 µM is 96.5%.

Q: What about the Cell viability ([1]; log concentration [M] -5.60206) of the same compound?
A: Its Cell viability is 100.107.

Q: And the viability at […] ([1]; log concentration [M] -6.00436)?
A: Its viability at […] is 93.4%.

Q: What about the Cell viability ([1]; log concentration [M] -6.00436) of the same compound?
A: The Cell viability was 93.5465.

Q: What about the viability at 0.3 µM ([1]; log concentration [M] -6.52288) of the same compound?
A: The viability at 0.3 µM was 103%.

Q: What about the Cell viability ([1]; log concentration [M] -6.52288) of the same compound?
A: The Cell viability was 93.076.

Q: What about the viability at 0.125 µM ([1]; log concentration [M] -6.90309) of the same compound?
A: The viability at 0.125 µM was 105%.

Q: What about the Cell viability ([1]; log concentration [M] -6.90309) of the same compound?
A: Its Cell viability is 93.9495.

Q: What about the viability at 0.05 µM ([1]; log concentration [M] -7.30103) of the same compound?
A: The viability at 0.05 µM was 102%.

Q: And the Cell viability ([1]; log concentration [M] -7.30103)?
A: The Cell viability was 103.3.

Q: What about the viability at 0.01625 µM ([1]; log concentration [M] -7.78915) of the same compound?
A: Its viability at 0.01625 µM is 96.5%.

Q: What about the Cell viability ([1]; log concentration [M] -7.78915) of the same compound?
A: Its Cell viability is 90.0205.

Q: And the viability at […] ([1]; log concentration [M] -8.06399)?
A: The viability at […] was 103%.

Q: What about the Cell viability ([1]; log concentration [M] -8.06399) of the same compound?
A: The Cell viability was 92.6947.

Q: What about the viability at 0.005 µM ([1]; log concentration [M] -8.30103) of the same compound?
A: Its viability at 0.005 µM is 99.5%.

Q: And the Cell viability ([1]; log concentration [M] -8.30103)?
A: Its Cell viability is 91.472.

Q: What about the viability at 0.0021 µM ([1]; log concentration [M] -8.67778) of the same compound?
A: Its viability at 0.0021 µM is 99.1%.

Q: And the Cell viability ([1]; log concentration [M] -8.67778)?
A: Its Cell viability is 90.5247.

Q: And the CSP (GABARAPL2; residue A19)?
A: The CSP was 0.00171 ppm.

Q: And the CSP (GABARAPL2; residue A23)?
A: Its CSP is 0.00424 ppm.

Q: What about the CSP (GABARAPL2; residue A58) of the same compound?
A: The CSP was 0.00148 ppm.

Q: What about the CSP (GABARAPL2; residue A75) of the same compound?
A: Its CSP is 0.002 ppm.

Q: And the CSP (GABARAPL2; residue A108)?
A: The CSP was 0.000762 ppm.

Q: What about the CSP (GABARAPL2; residue C15) of the same compound?
A: Its CSP is 0.004 ppm.

Q: What about the CSP (GABARAPL2; residue D8) of the same compound?
A: The CSP was 0.00263 ppm.

Q: What about the CSP (GABARAPL2; residue D27) of the same compound?
A: The CSP was 0.00158 ppm.

Q: What about the CSP (GABARAPL2; residue D43) of the same compound?
A: The CSP was 0.00251 ppm.

Q: What about the CSP (GABARAPL2; residue D45) of the same compound?
A: The CSP was 0.003 ppm.

Q: What about the CSP (GABARAPL2; residue D54) of the same compound?
A: Its CSP is 0.000849 ppm.

Q: And the CSP (GABARAPL2; residue D81)?
A: Its CSP is 0.00228 ppm.

Q: What about the CSP (GABARAPL2; residue D100) of the same compound?
A: Its CSP is 0.00228 ppm.

Q: What about the CSP (GABARAPL2; residue D102) of the same compound?
A: Its CSP is 0.00165 ppm.

Q: And the CSP (GABARAPL2; residue E7)?
A: The CSP was 0.00472 ppm.

Q: What about the CSP (GABARAPL2; residue E12) of the same compound?
A: The CSP was 0.00142 ppm.

Q: And the CSP (GABARAPL2; residue E17)?
A: Its CSP is 0.000762 ppm.

Q: And the CSP (GABARAPL2; residue E34)?
A: The CSP was 0.009 ppm.

Q: What about the CSP (GABARAPL2; residue E73) of the same compound?
A: The CSP was 0.000762 ppm.

Q: What about the CSP (GABARAPL2; residue E96) of the same compound?
A: The CSP was 0.000707 ppm.

Q: What about the CSP (GABARAPL2; residue E98) of the same compound?
A: The CSP was 0.00122 ppm.
